Type in all cases: functional, cell-based
The test system of one assay is MCF7. In words: Cytotoxicity against human MCF7 cells assessed as inhibition of cell viability after 72 hrs by SRB assay. Background: In SRB staining, fixed cells bind dye roughly in proportion to their protein.
A further assay has as its system NCI-H460. In words: Cytotoxicity against human NCI-H460 cells assessed as inhibition of cell viability after 72 hrs by SRB assay.
The subject of another assay is SF-268. Briefly: Cytotoxicity against human SF268 cells assessed as inhibition of cell viability after 72 hrs by SRB assay.

Values after ≈ are worked out from the molar mass of the structure shown.

What is called IC50 is the concentration that inhibits the measured activity by half.

Take `Cc1nc2cc(Br)ccc2nc1N1CCCCC1`: the IC50 worked out at 0.03361 µg/mL (≈ 0.11 µM) with MCF7, 0.04032 µg/mL (≈ 0.132 µM) in the assay on NCI-H460 and 0.03044 µg/mL (≈ 0.0994 µM) in the assay with SF-268.
The corresponding values for `Cc1nc2cc(Br)ccc2n(CC(=O)NN)c1=O` are 0.01 µg/mL (≈ 0.0321 µM), 0.02 µg/mL (≈ 0.0643 µM) and 0.06 µg/mL (≈ 0.193 µM).
Regarding `O=c1[nH]c2ccc(Br)cc2nc1/C=C/c1ccc(O)cc1`, the IC50 in the assay with MCF7 came to 0.02281 µg/mL (≈ 0.0665 µM); with NCI-H460, 0.02281 µg/mL (≈ 0.0665 µM); with SF-268, 0.02283 µg/mL (≈ 0.0665 µM).
For `COc1ccc(/C=C/c2nc3cc(Br)ccc3[nH]c2=O)cc1`, the values for the IC50 in the assay with MCF7, in the assay with NCI-H460 and in the assay with SF-268 were 0.06 µg/mL (≈ 0.168 µM), 0.06 µg/mL (≈ 0.168 µM) and 0.2 µg/mL (≈ 0.56 µM), respectively.
Consider `Cc1nc2cc(Br)ccc2nc1Sc1ccccc1`, for which the IC50 with MCF7 was 0.01222 µg/mL (≈ 0.0369 µM); with NCI-H460, 0.01842 µg/mL (≈ 0.0556 µM); in the assay on SF-268, 0.01816 µg/mL (≈ 0.0548 µM).
For `CCOC(=O)Cn1c(=O)c(C)nc2cc(Br)ccc21`, the IC50 came out at 0.0224 µg/mL (≈ 0.0689 µM) with MCF7, 0.01042 µg/mL (≈ 0.032 µM) in the assay on NCI-H460 and 0.00863 µg/mL (≈ 0.0265 µM) in the assay on SF-268.
Turning to `Cc1nc2cc(Br)ccc2nc1Oc1ccc(C=O)cc1`, the IC50 in the assay on MCF7 amounted to 0.03278 µg/mL (≈ 0.0955 µM); in the assay on NCI-H460, 0.02845 µg/mL (≈ 0.0829 µM); in the assay with SF-268, 0.0405 µg/mL (≈ 0.118 µM).
In the case of `Cc1ccc(/C=C/c2nc3cc(Br)ccc3[nH]c2=O)cc1`, the IC50 in the assay with MCF7 amounted to 0.02221 µg/mL (≈ 0.0651 µM); in the assay on NCI-H460 it was 0.00812 µg/mL (≈ 0.0238 µM); in the assay with SF-268, 0.0168 µg/mL (≈ 0.0492 µM).
On to `Cc1cc(C)n(-c2nc3ccc(Br)cc3nc2C)n1`, for which the values for the IC50 in the assay on MCF7, in the assay on NCI-H460 and with SF-268 were 0.02355 µg/mL (≈ 0.0742 µM), 0.0346 µg/mL (≈ 0.109 µM) and 0.04541 µg/mL (≈ 0.143 µM), respectively.
As to `Cc1nc2cc(Br)ccc2nc1Nc1ccc(S(=O)(=O)N2CCCCC2)cc1`, the 50% inhibitory concentration (IC50) came out at 0.00162 µg/mL (≈ 0.00351 µM) in the assay with MCF7, 0.67 µg/mL (≈ 1.45 µM) in the assay on NCI-H460 and 0.0018 µg/mL (≈ 0.0039 µM) in the assay on SF-268.
Take `Cc1nc2cc(Br)ccc2nc1NN`: the IC50 stood at 0.02427 µg/mL (≈ 0.0959 µM) in the assay on MCF7, 0.02062 µg/mL (≈ 0.0815 µM) in the assay on NCI-H460 and 0.01682 µg/mL (≈ 0.0665 µM) in the assay on SF-268.
The corresponding values for `Cc1nc2cc(Br)ccc2nc1Oc1ccc(/C=N\c2ccc(Cl)cc2)cc1` are 0.01263 µg/mL (≈ 0.0279 µM), 0.01866 µg/mL (≈ 0.0412 µM) and 0.03043 µg/mL (≈ 0.0672 µM).
In the case of `O=c1[nH]c2ccc(Br)cc2nc1/C=C/c1ccc(Br)cc1`, the IC50 stood at 0.03223 µg/mL (≈ 0.0794 µM) in the assay on MCF7, 0.03632 µg/mL (≈ 0.0894 µM) in the assay with NCI-H460 and 0.04066 µg/mL (≈ 0.1 µM) in the assay on SF-268.
`Cc1nc2cc(Br)ccc2nc1Oc1ccc(/N=C\c2ccc(Cl)cc2)cc1`: the values for the IC50 with MCF7, with NCI-H460 and in the assay with SF-268 were 0.08 µg/mL (≈ 0.177 µM), 0.08 µg/mL (≈ 0.177 µM) and 0.02 µg/mL (≈ 0.0442 µM), respectively.
Turning to `Cc1nc2cc(Br)ccc2nc1Oc1ccccc1N`, the IC50 in the assay with MCF7 is 0.02 µg/mL (≈ 0.0606 µM); with NCI-H460, 0.03 µg/mL (≈ 0.0909 µM); in the assay on SF-268 it was 0.06 µg/mL (≈ 0.182 µM).
On to `Cc1nc2cc(Br)ccc2n2nnnc12`, for which the concentration for half-maximal inhibition (IC50) in the assay with MCF7 stood at 0.03309 µg/mL (≈ 0.125 µM); in the assay on NCI-H460 it was 0.0208 µg/mL (≈ 0.0788 µM); in the assay on SF-268, 0.0203 µg/mL (≈ 0.0769 µM).
As to `Cc1nc2cc(Br)ccc2nc1Oc1ccc(N)cc1`, the IC50 with MCF7 was found to be 0.81 µg/mL (≈ 2.45 µM); in the assay with NCI-H460, 0.52 µg/mL (≈ 1.57 µM); with SF-268 it was 0.08 µg/mL (≈ 0.242 µM).
Consider `COc1cccc2c1C(=O)c1c(O)c3c(c(O)c1C2=O)C[C@@](O)(C(=O)CO)C[C@@H]3O[C@H]1C[C@H](N)[C@H](O)[C@H](C)O1` [DOXORUBICIN], for which the values for the IC50 with MCF7, in the assay on NCI-H460 and in the assay with SF-268 were 0.04 µg/mL (≈ 0.0736 µM), 0.09 µg/mL (≈ 0.166 µM) and 0.09 µg/mL (≈ 0.166 µM), respectively.

The values above are taken from ChEMBL document CHEMBL3616438, “Molecular modeling studies and synthesis of novel quinoxaline derivatives with potential anticancer activity as inhibitors of c-Met kinase” (Bioorg Med Chem, 2015).
